Consider one compound from publication PMC4961418, “A Selective Irreversible Inhibitor of Furin Does Not Prevent Pseudomonas Aeruginosa Exotoxin A-Induced Airway Epithelial Cytotoxicity” (PLoS ONE, 2016).

One test concerns the target T1, recombinant human furin (Homo sapiens, UniProt P09958).
T1 construct: purchased R&D Systems
The experiment in a line: Second order rate constant determination, steady-state fluorimetric assay (pERTKR-NH2Mec). The class given is biochemical. The following applies: irreversible inhibitor kinetics, 50 μM pERTKR-NH2Mec, 37°C, pH 7.4. The method, then:
A range of final inhibitor concentrations (at least 5) were prepared from a 10 mM stock solution of QUB-F1 (in N,N-dimethyformamide (DMF)). The fluorogenic substrate, p-Glu-Arg-Thr-Lys-Arg-NH2Mec (pERTKR-AMC), was diluted in assay buffer (25 mM Tris/HCl containing 1 mM CaCl2, pH 7.4) and used at a fixed concentration of 50 μM throughout. All inhibition assays were performed in microtitre plates maintained at 37°C in a final volume of 100 μl. The reaction was initiated by the addition of recombinant human furin (0.01 μg/well) and the rate of substrate hydrolysis continuously recorded at λex 360 nm, λem 480 nm, over a period of 90 minutes using a FLUOstar Optima microplate reader (BMG Labtech). The resultant inhibition progress curve for QUB-F1 was then analysed according to the kinetic models developed by Tian and Tsou and Walker and Elmore, for irreversible inhibitors, using GRAFIT (Erithacus Software). The inhibitor constant Ki, the apparent first order rate constant k3, and over all second-order rate constant (k3/Ki) for QUB-F1 against furin was determined, from a plot of 1/A against [I] (where A is the apparent second-order rate constant for irreversible inhibition determined for each inhibitor concentration [I]). The determination of Km and Vmax were also determined separately by fitting initial rates of hydrolysis to substrate concentration, according to Michaelis-Menten kinetics, also using GRAFIT (Erithacus Software). The inhibitor constant Ki, the apparent first order rate constant k3, and the overall second-order rate constant (k3/Ki) for QUB-F1 against furin were determined, from a plot of 1/A against [I] (where A is the apparent second-order rate constant for irreversible inhibition determined for each inhibitor concentration [I]).
The ability of QUB-F1 to inhibit recombinant human furin was assessed using a steady-state fluorimetric assay employing the cognate fluorescent substrate (pERTKR-NH2Mec). The k3, Ki and k3/Ki values where determined as follows: Ki 9.33 (± 0.32) x 10^−7 M, k3 0.016 (± 0.004) min^-1 and k3/Ki […] M^-1 min^-1. […]

Another test addresses cathepsin B (Homo sapiens, UniProt P07858). The test can be described thus: Cathepsin B activity assay. The class given is biochemical. The following applies: up to and including a concentration of 10 μM, N = 3. The protocol: Fig 3 Comparison of QUB-F1 and furin I versus cathepsin B. Cathepsin B activity was assessed in the presence or absence of various concentrations of QUB-F1 or furin I (N = 3). Data represent mean ± s.e.m.

For test [1], the system named is cell surface furin-like activity (CuFi-1 epithelial cells). The experiment in a line: Epithelial cell surface furin-like activity assay. It counts as cell-based, human. Conditions: 10 μM inhibitor, pERTKR substrate 50 μM applied to cell cultures. The protocol:
The CuFi-1 cell line was derived from human airway epithelium of a CF patient (F508del/F508del) transformed with a reverse transcriptase component of telomerase, hTERT and human papillomavirus type 16 E6 and E7 genes. Cells were grown as submerged cultures using bronchial epithelial growth medium (BEBM including a supplement pack) containing: epidermal growth factor, hydrocortisone, bovine pituitary extract, transferrin, bovine insulin, triiodothyronine, epinephrine, retinoic acid, penicillin-streptomycin (0.025 μg/ml), gentamycin ([…]) and amphotericin (25 μg/ml).
Cell culture media was removed from CuFi-1 epithelial cells grown in 96 well microtitre plates (Thermo Scientific Sterilin; clear bottom, black walled) and replaced with PBS /+ inhibitor compounds (furin I or QUB-F1). The furin fluorogenic substrate (pERTKR -NH2Mec) was then applied directly to the cell cultures to give a final concentration of 50 μM. Cell surface proteolytic activity was measured by monitoring the formation of–NH2Mec at λex 360 nm and λem 480 nm using a 5 mm orbital scan every 60 s over a 1 h period (FLUOstar Optima microplate reader; BMG Labtech).
Fig 4 Effect of furin inhibitors on PEA-induced epithelial cell toxicity. (A) Cell toxicity (%) induced by 2 μg/ml PEA (24 h) was measured in the presence or absence of furin I or QUB-F1. Data represent mean ± s.e.m. *P<0.05. […]

SMILES strings stand for the structures. Side chains are listed from the residue outwards. Peptide text beside a SMILES is read from it. * marks the point of attachment. Biotin = O=C1N[C@H]2[C@H](CS[C@H]2CCCCC(=O)*)N1; X1 = N=C(N)NCCCC(N*)P(=O)(Oc1ccccc1)Oc1ccccc1; Palmitoyl = CCCCCCCCCCCCCCCC(=O)*; Ahx = NCCCCCC(=O)O

T1 sequence (P09958 108-794): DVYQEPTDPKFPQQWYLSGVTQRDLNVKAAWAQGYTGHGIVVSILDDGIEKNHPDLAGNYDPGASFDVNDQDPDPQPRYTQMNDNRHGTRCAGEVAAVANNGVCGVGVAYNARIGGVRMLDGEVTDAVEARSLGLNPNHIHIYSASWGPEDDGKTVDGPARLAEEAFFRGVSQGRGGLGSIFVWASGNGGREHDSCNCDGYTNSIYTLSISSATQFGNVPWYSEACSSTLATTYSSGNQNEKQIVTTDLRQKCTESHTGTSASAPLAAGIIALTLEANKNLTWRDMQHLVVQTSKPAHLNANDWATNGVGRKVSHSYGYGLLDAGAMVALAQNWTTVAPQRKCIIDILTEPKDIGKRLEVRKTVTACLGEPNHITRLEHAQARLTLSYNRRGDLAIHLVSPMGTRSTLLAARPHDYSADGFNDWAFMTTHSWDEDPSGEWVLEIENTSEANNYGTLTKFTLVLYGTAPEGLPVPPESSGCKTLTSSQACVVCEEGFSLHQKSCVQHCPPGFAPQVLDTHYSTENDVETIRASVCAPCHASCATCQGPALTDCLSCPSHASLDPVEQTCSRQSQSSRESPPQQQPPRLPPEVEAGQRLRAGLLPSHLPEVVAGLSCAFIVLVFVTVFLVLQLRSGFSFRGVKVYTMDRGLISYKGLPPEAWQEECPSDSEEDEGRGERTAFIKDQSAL

Take `CCCCCCCCCCCCCCCC(=O)N[C@@H](CCCCNC(=O)CCCCCNC(=O)CCCC[C@@H]1SC[C@@H]2NC(=O)N[C@@H]21)C(=O)N[C@@H](CCCNC(=N)N)C(=O)N[C@H](C(=O)N[C@@H](CCCCN)C(=O)NC(CCCNC(=N)N)P(=O)(Oc1ccccc1)Oc1ccccc1)C(C)C` (stereo partly drawn) [QUB-F1, N^α-Pal-N^ω-(Biotinyl-Ahx)-Lys-RVKR^P(OPh)2] (Palmitoyl-K([Ahx-Biotin])RVK-X1): at recombinant human furin, the Ki was 933 nM and the “k3 (apparent first order rate constant)” value was 0.016 (± 0.004) min^-1. Moreover, the kinact/KI on recombinant human furin (read-out: k3/Ki (overall second-order rate constant) (converted)) is 342 M⁻¹ s⁻¹. Besides, the “inhibitory action on cathepsin B” value on cathepsin B is “no inhibitory action”. The “inhibition of cell surface furin-like activity” value in test [1] is “inhibited cell surface furin-like activity to the same extent as furin I”.
